Like-named read-outs stand apart in the source and are kept apart here.
Assay: Migration through porcine skin tissue under electric field (modified Franz apparatus)
Method: The effect of an electric field was explored on migration through the subcutis using fresh porcine abdominal skin tissue obtained from local abattoirs. To do this, a modified Franz apparatus was developed that could test up to 12 samples simultaneously (FIGS. 12A, 12B). Full-thickness porcine skin tissue plugs that were three cm in diameter were placed subcutis-down in individual wells over reservoirs containing cathodes below 2 ml of test solution. The device was then inverted to run the experiments.
Tissue and test solution were maintained at 37° C. using a heat lamp and monitored with a digital thermometer probe placed between the plexiglass plates, adjacent to the tissues. Anodes were inserted into conductive paste placed on the epidermal surface. Utilizing multiple electrophoresis power sources, 10V or 20V of electromotive potential was then run across each cathode-anode pair for one hour.
We tested the apparatus using a solution of bromophenol blue (BPB), a 0.67 kDa dye that appears blue above pH 4.6 and carries a negative charge near neutral pH similar to that of insulin. […]
One microscope slide was stained with H&E; an adjacent slide was stained with a Guinea pig polyclonal antibody (Ab) (Abcam ab7842), which was detected by a goat anti-Guinea pig polyclonal IgG H&L (Alexa Fluor® 594; Abcam ab150188).

Row | Compound | migration through porcine skin layers with voltage applied (10 V, 37° C., about one hour, test solution on subcutaneous surface) | migration through porcine skin layers with voltage applied
1 | O=S1(=O)OC(c2cc(Br)c(O)c(Br)c2)(c2cc(Br)c(O)c(Br)c2)c2ccccc21 [bromophenol blue] | dye penetrated through the subcutis in voltage-treated tissue | 
2 | Cy5-insulin: human insulin conjugated to cyanine-5-NHS-ester fluorophore (P/N IS1-S5-1, Nanocs, Inc.) |  | migration of the fluorescence-tagged insulin through the full skin thickness
